# Results published in ChEMBL document CHEMBL5729134, “Apoptosis signal-regulating kinase 1 inhibitors and methods of use thereof” (2022).
# Biological target: T1, Mitogen-activated protein kinase kinase kinase 5 (Homo sapiens, UniProt Q99683)
# T1 sequence (Q99683 whole entry): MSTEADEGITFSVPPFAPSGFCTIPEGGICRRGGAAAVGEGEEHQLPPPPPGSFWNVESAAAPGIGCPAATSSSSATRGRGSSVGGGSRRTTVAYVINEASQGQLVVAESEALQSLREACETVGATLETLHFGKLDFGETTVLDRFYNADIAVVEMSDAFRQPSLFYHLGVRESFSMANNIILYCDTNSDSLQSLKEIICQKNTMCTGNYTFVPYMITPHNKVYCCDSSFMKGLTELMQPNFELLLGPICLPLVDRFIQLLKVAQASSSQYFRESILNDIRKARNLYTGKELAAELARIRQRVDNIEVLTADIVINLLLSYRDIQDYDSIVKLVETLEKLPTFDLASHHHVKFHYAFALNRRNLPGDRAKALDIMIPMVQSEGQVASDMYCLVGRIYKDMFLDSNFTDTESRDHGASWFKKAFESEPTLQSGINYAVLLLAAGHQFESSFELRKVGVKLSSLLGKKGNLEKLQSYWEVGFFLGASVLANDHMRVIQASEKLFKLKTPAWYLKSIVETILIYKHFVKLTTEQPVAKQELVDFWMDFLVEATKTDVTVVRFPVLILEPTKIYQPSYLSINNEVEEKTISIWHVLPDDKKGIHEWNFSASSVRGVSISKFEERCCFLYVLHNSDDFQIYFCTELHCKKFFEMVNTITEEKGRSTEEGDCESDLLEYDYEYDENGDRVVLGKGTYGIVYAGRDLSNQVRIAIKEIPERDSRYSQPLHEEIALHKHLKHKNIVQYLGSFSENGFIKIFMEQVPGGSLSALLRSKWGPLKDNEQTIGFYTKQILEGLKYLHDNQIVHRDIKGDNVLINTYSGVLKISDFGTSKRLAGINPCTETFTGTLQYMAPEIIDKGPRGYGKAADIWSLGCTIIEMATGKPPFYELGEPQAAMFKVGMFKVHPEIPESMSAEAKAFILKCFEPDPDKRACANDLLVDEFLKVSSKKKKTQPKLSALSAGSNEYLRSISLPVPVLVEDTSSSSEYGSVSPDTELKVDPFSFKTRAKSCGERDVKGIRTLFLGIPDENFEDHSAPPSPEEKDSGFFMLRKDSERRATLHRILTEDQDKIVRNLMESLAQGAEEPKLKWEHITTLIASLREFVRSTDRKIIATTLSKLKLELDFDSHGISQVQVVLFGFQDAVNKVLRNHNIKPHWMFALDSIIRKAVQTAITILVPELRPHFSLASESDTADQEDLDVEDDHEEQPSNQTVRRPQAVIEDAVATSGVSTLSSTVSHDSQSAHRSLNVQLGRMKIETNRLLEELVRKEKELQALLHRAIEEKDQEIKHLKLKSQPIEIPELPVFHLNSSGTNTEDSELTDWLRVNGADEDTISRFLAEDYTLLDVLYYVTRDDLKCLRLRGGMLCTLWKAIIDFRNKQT
# Test: HTRF KinEASE Assay : ASK1 was purchased from Thermofisher (Catalogue #PV4011), ATP was purchased from Sigma (Catalogue #A7699), HTRF® KinEASE Assay System was obtained from Cisbio (Bedford, Mass.). ½ Area plate was purchased from Perkin Elmer (Catalogue ##6005560). HTRF® KinEASE-STK is a generic method for measuring serine/threonine kinase activities using a time-resolved fluorescence resonance energy transfer (TR-FRET) immunoassay. The IC50 value for each compound was determined in the presence of compound (various concentration from 0 to 10 μM) and a fixed amount of ATP and peptide substrates. The test compound, 1 μM STK3 peptide substrate, and […] are incubated with kinase reaction buffer containing 50 mM HEPES Ph 7.5, 0.01% BRIJ-35, 10 mM MgCl2, and 1 mM EGTA for 30 minutes. 100 μM ATP is added to start kinase reaction and incubated for 3 hours. The STK3-antibody labeled with Eu3+-Cryptate and 125 nM streptavidin-XL665 are mixed in a single addition with stop reagents provided by the Cisbio kit used to stop the kinase reaction. Fluorescence is detected using an Envision Multilabeled 2014 reader from PerkinElmer. The Fluorescence is measured at 615 nm (Cryptate) and 665 nm (XL665) and a ratio of 665 nm/615 nm is calculated for each well. The resulting TR-FRET is proportional to the phosphorylation level. Staurosporine was used as the positive control. IC50 was determined by Xlfit 5.3.
row,Structure (SMILES),IC50 [nM]
1,COc1cc2c(cc1C(=O)Nc1cccc(-c3nnnn3C(C)C)n1)CN(S(=O)(=O)CCC(F)(F)F)CC2,1.25 to 10
2,C[C@H](CO)n1cnnc1-c1cccc(NC(=O)c2cc3c(cc2F)CCN(C(=O)C(C)(C)C)C3)n1,1.25 to 10
3,C[C@H](CO)n1cnnc1-c1cccc(NC(=O)c2cc3c(cc2F)CCN(C(=O)OC2CCCC2)C3)n1,1.25 to 10
4,COc1cc2c(cc1C(=O)Nc1cccc(-c3nncn3[C@H](C)CO)n1)CN(S(=O)(=O)C1CC1)CC2,1.25 to 10
5,CC(C)n1cnnc1-c1cccc(NC(=O)c2cc3c(cn2)CCN(S(=O)(=O)c2ccccc2)C3)n1,1.25 to 10
6,CCOC(=O)N1CCc2cnc(C(=O)Nc3cccc(-c4nncn4C(C)C)n3)cc2C1,1.25 to 10
7,COc1cc2c(cc1C(=O)Nc1cccc(-c3nnnn3C(C)C)n1)CN(C(C)C)CC2,1.25 to 10
8,COc1cc2c(cc1C(=O)Nc1cccc(-c3nncn3[C@H](C)CO)n1)CN(C(=O)c1ccc(F)cc1)CC2,1.25 to 10
9,C[C@H](CO)n1cnnc1-c1cccc(NC(=O)c2cc3c(cn2)CCN(C(=O)N2CCCC2)C3)n1,1.25 to 10
10,CC(C)CN1CCc2cnc(C(=O)Nc3cccc(-c4nncn4[C@H](C)CO)n3)cc2C1,1.25 to 10
11,CCNC(=O)N1CCc2cnc(C(=O)Nc3cccc(-c4nncn4[C@H](C)CO)n3)cc2C1,1.25 to 10
12,CC(C)COC(=O)N1CCc2cc(F)c(C(=O)Nc3cccc(-c4nncn4[C@H](C)CO)n3)cc2C1,1.25 to 10
13,COc1cc2c(cc1C(=O)Nc1cccc(-c3nncn3C(C)C)n1)CN(C(=O)C(C)(C)C)CC2,1.25 to 10
14,COc1cc2c(cc1C(=O)Nc1cccc(-c3nncn3C(C)C)n1)CN(S(=O)(=O)CCC(F)(F)F)CC2,1.25 to 10
15,CC(C)n1cnnc1-c1cccc(NC(=O)c2cc3c(cn2)CCN(C(=O)c2ccc(F)cc2)C3)n1,1.25 to 10
16,COc1cc2c(cc1C(=O)Nc1cccc(-c3nncn3[C@H](C)CO)n1)CN(C(=O)OC(C)C)CC2,1.25 to 10
17,C[C@H](CO)n1cnnc1-c1cccc(NC(=O)c2cc3c(cc2F)CCN(C(=O)c2ccc(F)cc2)C3)n1,1.25 to 10
18,C[C@H](CO)n1cnnc1-c1cccc(NC(=O)c2cc3c(cc2F)CCN(C(=O)N(C)C)C3)n1,1.25 to 10
19,C[C@H](CO)n1cnnc1-c1cccc(NC(=O)c2cc3c(cc2F)CCN(C)C3)n1,1.25 to 10
20,COc1cc2c(cc1C(=O)Nc1cccc(-c3nncn3[C@H](C)CO)n1)CN(C(=O)OCC(F)(F)F)CC2,1.25 to 10
21,CCNC(=O)N1CCc2cc(OC)c(C(=O)Nc3cccc(-c4nncn4[C@H](C)CO)n3)cc2C1,< 1.25
22,C[C@H](CO)n1cnnc1-c1cccc(NC(=O)c2cc3c(cc2F)CCN(S(=O)(=O)CCC(F)(F)F)C3)n1,< 1.25
23,COc1cc2c(cc1C(=O)Nc1cccc(-c3nncn3[C@H](C)CO)n1)CN(C(=O)C(C)(C)C)CC2,< 1.25
24,COc1cc2c(cc1C(=O)Nc1cccc(-c3nncn3C(C)C)n1)CN(C(C)C)CC2,1.25 to 10
25,COc1cc2c(cc1C(=O)Nc1cccc(-c3nncn3C(C)C)n1)CN(S(=O)(=O)C1CC1)CC2,1.25 to 10
26,C[C@H](CO)n1cnnc1-c1cccc(NC(=O)c2cc3c(cc2F)CCN(C(=O)OC2CC2)C3)n1,1.25 to 10
27,COc1cc2c(cc1C(=O)Nc1cccc(-c3nncn3[C@H](C)CO)n1)CN(C(=O)OC(C)(C)C)CC2,< 1.25
28,CCNC(=O)N1CCc2cc(OC)c(C(=O)Nc3cccc(-c4nncn4C(C)C)n3)cc2C1,< 1.25
29,COc1cc2c(cc1C(=O)Nc1cccc(-c3nncn3[C@H](C)CO)n1)CN(S(=O)(=O)CCC(F)(F)F)CC2,< 1.25
30,CCNC(=O)N1CCc2cc(F)c(C(=O)Nc3cccc(-c4nncn4[C@H](C)CO)n3)cc2C1,< 1.25

# Results, then the compound that gave them:
row,IC50 [nM],Structure (SMILES)
1,< 1.25,CCOC(=O)N1CCc2cc(OC)c(C(=O)Nc3cccc(-c4nncn4[C@H](C)CO)n3)cc2C1
2,< 1.25,COc1cc2c(cc1C(=O)Nc1cccc(-c3nnnn3C(C)C)n1)CN(C(=O)c1ccc(F)cc1)CC2
3,< 1.25,CC(C)n1cnnc1-c1cccc(NC(=O)c2cc3c(cn2)CCN(C(=O)N2CCCC2)C3)n1
4,< 1.25,COc1cc2c(cc1C(=O)Nc1cccc(-c3nnnn3C(C)C)n1)CN(S(=O)(=O)C1CC1)CC2
5,< 1.25,COc1cc2c(cc1C(=O)Nc1cccc(-c3nnnn3C(C)C)n1)CN(C(=O)C(C)(C)C)CC2
6,< 1.25,COc1cc2c(cc1C(=O)Nc1cccc(-c3nnnn3C(C)C)n1)CN(C(=O)OC(C)C)CC2
7,< 1.25,C[C@H](CO)n1cnnc1-c1cccc(NC(=O)c2cc3c(cc2F)CCN(C(=O)OCCF)C3)n1
8,< 1.25,COc1cc2c(cc1C(=O)Nc1cccc(-c3nnnn3C(C)C)n1)CN(C(=O)OCc1ccccc1)CC2
9,< 1.25,COc1cc2c(cc1C(=O)Nc1cccc(-c3nncn3C(C)C)n1)CN(C(=O)c1ccc(F)cc1)CC2
10,< 1.25,CCNC(=O)N1CCc2cc(OC)c(C(=O)Nc3cccc(-c4nnnn4C(C)C)n3)cc2C1
11,< 1.25,CCOC(=O)N1CCc2cnc(C(=O)Nc3cccc(-c4nncn4[C@H](C)CO)n3)cc2C1
12,< 1.25,COc1cc2c(cc1C(=O)Nc1cccc(-c3nncn3[C@H](C)CO)n1)CN(C)CC2
13,< 1.25,C[C@H](CO)n1cnnc1-c1cccc(NC(=O)c2cc3c(cc2F)CCN(C(=O)N2CCCC2)C3)n1
14,< 1.25,CC(C)OC(=O)N1CCc2cc(F)c(C(=O)Nc3cccc(-c4nncn4[C@H](C)CO)n3)cc2C1
15,< 1.25,C[C@H](CO)n1cnnc1-c1cccc(NC(=O)c2cc3c(cn2)CCN(S(=O)(=O)c2ccccc2)C3)n1
16,< 1.25,CC(C)N1CCc2cc(F)c(C(=O)Nc3cccc(-c4nncn4[C@H](C)CO)n3)cc2C1

row,IC50 [nM],Structure (SMILES)
1,< 1.25,COc1cc2c(cc1C(=O)Nc1cccc(-c3nncn3C(C)C)n1)CN(C(=O)N1CCCC1)CC2
2,< 1.25,COc1cc2c(cc1C(=O)Nc1cccc(-c3nnnn3C(C)C)n1)CN(C(=O)N1CCCC1)CC2
3,< 1.25,COc1cc2c(cc1C(=O)Nc1cccc(-c3nnnn3C(C)C)n1)CN(C)CC2
4,< 1.25,C[C@H](CO)n1cnnc1-c1cccc(NC(=O)c2cc3c(cn2)CCN(Cc2ccccn2)C3)n1
5,< 1.25,C[C@H](CO)n1cnnc1-c1cccc(NC(=O)c2cc3c(cn2)CCN(C(=O)OCC(F)(F)F)C3)n1
6,< 1.25,C[C@H](CO)n1cnnc1-c1cccc(NC(=O)c2cc3c(cc2F)CCN(C(=O)OCC(F)(F)F)C3)n1
7,< 1.25,CCOC(=O)N1CCc2cc(F)c(C(=O)Nc3cccc(-c4nncn4[C@H](C)CO)n3)cc2C1
8,< 1.25,COc1cc2c(cc1C(=O)Nc1cccc(-c3nncn3C(C)C)n1)CN(C)CC2
9,< 1.25,CC(C)n1cnnc1-c1cccc(NC(=O)c2cc3c(cc2F)CCN(c2ncccn2)C3)n1
10,< 1.25,CCOC(=O)N1CCc2cc(OC)c(C(=O)Nc3cccc(-c4nnnn4C(C)C)n3)cc2C1
11,< 1.25,C[C@H](CO)n1cnnc1-c1cccc(NC(=O)c2cc3c(cc2F)CCN(C(=O)NC2CCCC2)C3)n1
12,< 1.25,CC(C)n1cnnc1-c1cccc(NC(=O)c2cc3c(cn2)CCN(Cc2ccccn2)C3)n1
13,< 1.25,C[C@H](CO)n1cnnc1-c1cccc(NC(=O)c2cc3c(cc2F)CCN(S(=O)(=O)C2CC2)C3)n1
14,< 1.25,C[C@H](CO)n1cnnc1-c1cccc(NC(=O)c2cc3c(cn2)CCN(S(=O)(=O)N(C)C)C3)n1
15,< 1.25,COc1cc2c(cc1C(=O)Nc1cccc(-c3nnnn3C(C)C)n1)CN(C(=O)OCC(F)(F)F)CC2
16,< 1.25,COc1cc2c(cc1C(=O)Nc1cccc(-c3nncn3C(C)C)n1)CN(C(=O)OCC(F)(F)F)CC2
